{
  "source": "patent US20210276967A1",
  "about": "(OSPEDALE SAN RAFFAELE S.R.L., priority 2018, published 2021)",
  "key": {"HBV": {"test_system": "HBV", "assay": "HBV inhibition in HepAD38 cells, extracellular HBV DNA by direct qPCR", "type": "cell-based, hepatitis B virus", "settings": "Hepatitis B virus"}, "[1]": {"assay": "Hepatocytes stability, human", "type": "in vitro ADME", "settings": "data not shown", "experimental": "Hepatic metabolism is often a major contributor to drug clearance from the body. Pooled cryopreserved human hepatocytes (commercially available for example from Bioreclamation IVT, LiverPool 20-donor Human Hepatocytes Product. No. X008000) are thawed and re-suspended in Hepatocyte Culture Medium (HCM) complete (commercially available, as for example from Lonza, HBM Hepatocytes Basal Medium Catalog No. CC-3199+HCM SingleQuots Catalog No. CC-4182). Compounds are diluted into the cell suspension (2.5 μl/2.5 mL, 1 million cells/mL) from 3 mM stock solution in DMSO to give a 3 μM concentration (0.1% DMSO). 150 μl (×2) of this mixture are taken and transferred into a 96-deep-well plate containing an equal volume of quenching solution (100% acetonitrile plus 0.1% formic acid) for time 0 incubation. […]\nStability is determined based on analysis of the disappearance of the compound as a function of incubation time, using area ratio (analyte peak area vs internal standard peak area). The elimination constant k is calculated by plotting mean disappearance values on a semi-logarithmic scale and fitting with a best fit linear regression. […] When the half-life could not be calculated, data are reported as: <0.5 or >4 hours. Intrinsic clearance given in μl/min/million cells is calculated using the Equation: Clint=KV/N. Where K=0.693/t1/2, V=incubation volume (ml) and N=number of hepatocytes/sample."}},
  "note": "pEC50: −log10 of the molar value.",
  "data": [
    {"smiles": "Nc1ccc(C(=O)Nc2cc(F)c(F)c(F)c2)cc1S(N)(=O)=O", "note": "[Example E3, 4-amino-3-sulfamoyl-N-(3,4,5-trifluorophenyl)benzamide]", "values": [
      {"measurement": "inhibition at 0.5 µM", "setting": "HBV; 0.5 μM, HepAD38, 96 hours, read-out: HBV inhibition % (conc μM)", "value": "> 50", "unit": "%"},
      {"measurement": "stability in human hepatocytes", "setting": "[1]", "value": "stable"}
    ]},
    {"smiles": "Cc1cc(N)c(S(N)(=O)=O)cc1C(=O)Nc1cc(F)c(F)c(F)c1", "note": "[Example E17, 4-amino-2-methyl-5-sulfamoyl-N-(3,4,5-trifluorophenyl)benzamide]", "values": [
      {"measurement": "pEC50", "setting": "HBV; HepAD38, 8-point dose-response, read-out: HBV inh EC50", "value": "> 6.00"}
    ]}
  ]
}
